Test results as given in PMC7144155 (ACS Omega, 2020).
In brackets after ≈: the same amount, converted by molar mass. Several values for one entry are separate records, joined by “and”; a condition that tells them apart may be missing. Equal entries are not always repeated.

Legend:
[1] = biological target: T1, human dopamine D1 receptor (hD1R) (Homo sapiens, UniProt P21728); assay: GPCR functional assay, agonist effect; assay type: cell-based; conditions: D1 (h); % of control agonist (dopamine) response at 50 μM of anthraquinones
T1 sequence (P21728 whole entry): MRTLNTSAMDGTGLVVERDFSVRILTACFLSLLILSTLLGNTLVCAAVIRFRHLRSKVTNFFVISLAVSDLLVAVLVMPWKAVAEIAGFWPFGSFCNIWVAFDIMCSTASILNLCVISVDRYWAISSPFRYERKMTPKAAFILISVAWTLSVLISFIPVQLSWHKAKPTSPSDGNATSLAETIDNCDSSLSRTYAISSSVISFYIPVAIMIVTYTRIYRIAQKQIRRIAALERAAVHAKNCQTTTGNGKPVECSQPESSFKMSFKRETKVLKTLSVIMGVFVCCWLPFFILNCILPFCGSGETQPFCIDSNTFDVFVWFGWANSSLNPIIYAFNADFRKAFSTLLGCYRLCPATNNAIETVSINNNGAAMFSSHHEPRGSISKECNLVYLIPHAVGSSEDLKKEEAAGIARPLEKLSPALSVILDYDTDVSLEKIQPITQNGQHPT

[2] = biological target: T2, human dopamine D4 receptor (hD4R) (Homo sapiens, UniProt P21917); assay: GPCR functional assay, agonist effect; assay type: cell-based; conditions: D4 (h); % of control agonist (dopamine) response at 50 μM of anthraquinones
T2 sequence (P21917 1-419): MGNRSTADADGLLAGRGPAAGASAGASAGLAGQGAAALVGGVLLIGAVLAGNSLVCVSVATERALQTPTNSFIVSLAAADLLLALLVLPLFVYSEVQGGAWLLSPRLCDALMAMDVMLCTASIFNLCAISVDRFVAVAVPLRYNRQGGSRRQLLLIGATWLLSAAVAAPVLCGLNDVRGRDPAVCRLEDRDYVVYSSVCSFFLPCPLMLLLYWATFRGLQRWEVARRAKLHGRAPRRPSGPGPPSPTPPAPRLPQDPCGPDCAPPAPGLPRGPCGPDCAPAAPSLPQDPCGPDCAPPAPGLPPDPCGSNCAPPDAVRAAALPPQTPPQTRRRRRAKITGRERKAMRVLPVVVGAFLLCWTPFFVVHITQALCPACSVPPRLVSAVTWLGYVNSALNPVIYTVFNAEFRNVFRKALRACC

[3] = biological target: T3, human vasopressin V1A receptor (hV1AR) (Homo sapiens, UniProt P37288); assay: GPCR functional assay, agonist effect; assay type: cell-based; conditions: for % stimulation: V1A (h), % of control response to 1 μM AVP at 50 μM of anthraquinones; for agonist response at hV1AR (in words): up to 50 μM
T3 sequence (P37288 whole entry): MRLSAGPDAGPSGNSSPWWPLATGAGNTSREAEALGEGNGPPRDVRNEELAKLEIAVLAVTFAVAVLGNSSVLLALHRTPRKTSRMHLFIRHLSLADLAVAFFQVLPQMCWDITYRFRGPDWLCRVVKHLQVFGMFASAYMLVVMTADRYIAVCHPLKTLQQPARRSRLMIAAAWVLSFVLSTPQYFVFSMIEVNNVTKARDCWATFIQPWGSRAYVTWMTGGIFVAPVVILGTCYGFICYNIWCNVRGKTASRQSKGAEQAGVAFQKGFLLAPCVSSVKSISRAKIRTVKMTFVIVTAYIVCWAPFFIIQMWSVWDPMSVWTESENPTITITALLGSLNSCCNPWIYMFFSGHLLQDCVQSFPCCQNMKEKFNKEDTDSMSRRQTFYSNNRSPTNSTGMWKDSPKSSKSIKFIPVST

[4] = biological target: T4, human dopamine D3 receptor (hD3R) (Homo sapiens, UniProt P35462); assay: GPCR functional assay, antagonist effect; assay type: cell-based; conditions: for % inhibition: D3 (h), % inhibition of control response to 10 nM dopamine at 50 μM of anthraquinones
T4 sequence (P35462 whole entry): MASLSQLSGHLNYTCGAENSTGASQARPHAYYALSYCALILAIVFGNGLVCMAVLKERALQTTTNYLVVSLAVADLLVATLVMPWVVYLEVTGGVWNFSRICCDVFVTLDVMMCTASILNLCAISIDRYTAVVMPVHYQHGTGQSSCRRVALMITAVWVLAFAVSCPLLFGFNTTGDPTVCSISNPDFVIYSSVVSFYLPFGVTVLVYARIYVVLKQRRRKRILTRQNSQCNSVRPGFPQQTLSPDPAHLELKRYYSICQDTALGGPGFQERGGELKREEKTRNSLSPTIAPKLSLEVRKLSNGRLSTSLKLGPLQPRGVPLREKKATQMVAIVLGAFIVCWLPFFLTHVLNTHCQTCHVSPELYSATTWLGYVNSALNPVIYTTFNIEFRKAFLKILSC

[5] = biological target: T3, human vasopressin V1A receptor (hV1AR); assay: cell-based
[6] = biological target: T5, human 5-HT1A receptor (h5-HT1AR) (Homo sapiens, UniProt P08908); assay: GPCR functional assay, antagonist effect; assay type: cell-based; conditions: for % inhibition: 5-HT1A (h), % inhibition of control response to 30 nM serotonin at 50 μM of anthraquinones
T5 sequence (P08908 1-422): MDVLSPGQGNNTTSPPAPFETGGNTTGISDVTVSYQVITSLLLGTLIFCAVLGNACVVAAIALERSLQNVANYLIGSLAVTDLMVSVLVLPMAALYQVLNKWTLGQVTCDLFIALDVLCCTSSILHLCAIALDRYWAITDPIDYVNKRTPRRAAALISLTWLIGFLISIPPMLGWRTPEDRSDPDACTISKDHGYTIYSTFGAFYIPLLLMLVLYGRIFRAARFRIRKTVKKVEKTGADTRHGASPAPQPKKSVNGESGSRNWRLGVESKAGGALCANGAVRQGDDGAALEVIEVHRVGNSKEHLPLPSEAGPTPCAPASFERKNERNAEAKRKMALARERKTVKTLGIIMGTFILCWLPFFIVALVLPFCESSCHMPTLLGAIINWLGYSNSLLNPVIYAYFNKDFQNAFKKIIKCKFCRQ

[7] = biological target: T2, human dopamine D4 receptor (hD4R); assay: GPCR functional assay, antagonist effect; assay type: cell-based; conditions: for inhibition at 50 µM: CHO
[8] = biological target: T5, human 5-HT1A receptor (h5-HT1AR); assay: GPCR functional assay, agonist effect; assay type: cell-based; conditions: 5-HT1A (h); % of control response to serotonin (2.5 μM) at 50 μM of anthraquinones
[9] = biological target: T1, human dopamine D1 receptor (hD1R); assay: GPCR functional assay, antagonist effect; assay type: cell-based; conditions: CHO
[10] = biological target: T4, human dopamine D3 receptor (hD3R); assay: GPCR functional assay, agonist effect; assay type: cell-based; conditions: for % stimulation: D3 (h), % of control response to 300 nM dopamine at 50 μM of anthraquinones
[11] = test system: human glioblastoma U87MG-implanted nude CG1 mice; conditions: i.p. 50 mg/(kg day) for 15 days; decreasing Ki67 positive cells; cited from earlier work
[12] = biological target: acetylcholinesterase; conditions: cited from earlier work
[13] = test system: U87MG cells; conditions: 20 and 40 μM; cited from earlier work
[14] = test system: cycloheximide-induced amnesia in rats; conditions: cited from earlier work
[15] = test system: human epidermoid carcinoma A431 cell; conditions: 100 μM, 4 nM (−)-epinephrine, 2 μM nicotinic acid, 8 μM histamine; cited from earlier work
[16] = 20 and 40 mg/kg, rapid phase II metabolism to glucuronide; cited from earlier work
[17] = test system: cerebral ischemia/reperfusion (I/R) model rats; conditions: intraperitoneal injection, 25 g/(kg day); cited from earlier work
[18] = test system: traumatic brain injury; conditions: after traumatic brain injury; cited from earlier work
[19] = test system: formalin-injected paw model of pain; conditions: coadministration 450 μg/paw; P < 0.001; cited from earlier work

SMILES | % stimulation [1] | % stimulation [2] | % stimulation [3] | agonist response at hV1AR (in words) [3] | % inhibition [4] [%] | effect on hV1AR (in words) [5] | antagonist effect on h5-HT1AR (in words) [6] | % inhibition [6] [%] | inhibition at 50 µM [7] [%] | % stimulation [8] | inhibition at 50 µM [9] [%] | % stimulation [10] | also measured
COc1cc(O)cc2c1C(=O)c1c(O)cc(C)cc1C2=O [questin] | –2.10 ± 0.85% | –38.15 ± 15.91% | –3.40 ± 0.71% | did not show any agonist response | 1.25 ± 7.42 | did not have any observable effect | remained ineffective | 0.70 ± 4.10 | 4.5 | 2.45 ± 0.49% | 10.9 | 34.85% and 34.85 ± 0.78% | hD3R agonist effect (in words) [10]: moderate hD3R agonist effect
O=C1c2cccc(O)c2C(=O)c2c(O)cc(CO)cc21 [aloe-emodin] | 0.15 ± 4.45% | -53.15 ± 7.00% | 7.45 ± 1.20% | did not show any agonist response | 20.60 ± 6.79 | did not have any observable effect | remained ineffective | 1.55 ± 3.61 | 25.7 | 3.45 ± 0.21% | -47.9 | –57.95 ± 32.88% | effect in mouse brain tumour model [11]: showed antiproliferative effect; hD3R antagonist effect (in words) [4]: mild hD3R antagonist effect; hD4R antagonist effect (in words) [7]: mild antagonist effect; IC50 (acetylcholinesterase activity) [12]: 18.37 µg/mL (≈ 68 µM); cell cycle effect [13]: induced cell cycle arrest
Cc1cc(O)c2c(c1)C(=O)c1cc(O)cc(O)c1C2=O [emodin] | –3.55 ± 0.64% | 2.35 ± 2.76% | –4.80 ± 0.69% | did not show any agonist response | −10.8 ± 6.59 | – | remained ineffective | 18.4 ± 3.89 | -0.35 | –3.56 ± 0.21% | -10.2 | 75.6% and 75.60 ± 12.87% | cycloheximide-induced amnesia [14]: improved cycloheximide-induced amnesia; IC50 [5]: 10.2 ± 1.97 µM; inhibition at 12.5 µM ([5]; CHO, read-out: inhibition of 10 nM AVP-induced intracellular Ca2+ concentration): > 50%; % inhibition ([5]; V1A (h), % inhibition of control response to 10 nM AVP at 50 μM of anthraquinones): 69.35 ± 1.34%; effect on agonist-induced dynamic mass redistribution signals [15]: inhibited; EC50 [10]: 21.9 ± 2.66 µM; parent form in vivo after oral administration [16]: almost undetectable; neurological deficit scores [17]: improved neurological deficit scores
COc1ccc(S(=O)(=O)N2c3ccc(Cl)cc3[C@](O)(c3ccccc3Cl)[C@@H]2C(=O)N2CCC[C@H]2C(N)=O)cc1OC [SR49059, (2S)1-{(2R,3S)-5-chloro-3-(2-chloro-phenyl)-1-(3,4-dimethoxybenzene-sulfonyl)-3-hydroxy-2,3-dihydro-1H-indole-2-carbonyl}pyrrolidine-2-carboxamide] | – | – | – | – | – | – | – | – | – | – | – | – | brain edema [18]: prevented brain edema
COc1ccccc1N1CCN(CC(C(=O)NC(C)(C)C)c2ccccc2)CC1 (stereo not drawn) [WAY 100 135] | – | – | – | – | – | – | – | – | – | – | – | – | phase 2 (long lasting) intense flinching behavior [19]: inhibited
